Assays:
Experiment in all cases: relative viability (nuclei count vs DMSO), 5 days (fraction); higher = more cells survive
[1] = compound: COc1cc2nccc(Oc3ccc(NC(=O)C4(C(=O)Nc5ccc(F)cc5)CC4)cc3)c2cc1OC [Cabozantinib] + Cc1cc(Nc2cc(N3CCN(C)CC3)nc(Sc3ccc(NC(=O)C4CC4)cc3)n2)n[nH]1 [Tozasertib] (partner 0.1 µM)
Method in brief: (§1)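 After 5 days of treatment, lung cancer cells in 1536-well plates were fixed and stained in a single step (final 0.05% Triton X-100, 1% formaldehyde, 1 ug/ml Hoechst) and their nuclei counted on 4× images. Treatment had been applied by pin tool the day after seeding as one drug alone or as a fixed anchor-drug dose with five library-drug doses (not always all listed) in √10 steps. Relative viability is the nuclei count of treated wells divided by that of vehicle wells, and values are medians of duplicate plates.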

Zosuquidar + Decitabine = compound: O[C@@H](COc1cccc2ncccc12)CN1CCN([C@@H]2c3ccccc3[C@@H]3[C@H](c4ccccc42)C3(F)F)CC1 [Zosuquidar] + Nc1ncn([C@H]2C[C@H](O)[C@@H](CO)O2)c(=O)n1 [Decitabine] (partner 2 µM)
Method in brief: as §1

Zosuquidar + Alpelisib = compound: O[C@@H](COc1cccc2ncccc12)CN1CCN([C@@H]2c3ccccc3[C@@H]3[C@H](c4ccccc42)C3(F)F)CC1 [Zosuquidar] + Cc1nc(NC(=O)N2CCC[C@H]2C(N)=O)sc1-c1ccnc(C(C)(C)C(F)(F)F)c1 [Alpelisib] (partner 2 µM)
Method in brief: as §1

Zosuquidar + Palbociclib = compound: O[C@@H](COc1cccc2ncccc12)CN1CCN([C@@H]2c3ccccc3[C@@H]3[C@H](c4ccccc42)C3(F)F)CC1 [Zosuquidar] + CC(=O)c1c(C)c2cnc(Nc3ccc(N4CCNCC4)cn3)nc2n(C2CCCC2)c1=O [Palbociclib] (partner 0.5 µM)
Method in brief: as §1

Cell Line | relative viability ([1]; first compound 0.02 µM) | relative viability ([1]; first compound 0.06325 µM) | relative viability ([1]; first compound 0.2 µM) | relative viability ([1]; first compound 0.6325 µM) | relative viability ([1]; first compound 2 µM) | relative viability (Zosuquidar + Decitabine; first compound 0.01 µM) | relative viability (Zosuquidar + Decitabine; first compound 0.03162 µM) | relative viability (Zosuquidar + Decitabine; first compound 0.3162 µM) | relative viability (Zosuquidar + Decitabine; first compound 1 µM) | relative viability (Zosuquidar + Alpelisib; first compound 0.01 µM) | relative viability (Zosuquidar + Alpelisib; first compound 0.03162 µM) | relative viability (Zosuquidar + Alpelisib; first compound 0.3162 µM) | relative viability (Zosuquidar + Alpelisib; first compound 1 µM) | relative viability (Zosuquidar + Palbociclib; first compound 0.01 µM) | relative viability (Zosuquidar + Palbociclib; first compound 0.03162 µM) | relative viability (Zosuquidar + Palbociclib; first compound 0.3162 µM) | relative viability (Zosuquidar + Palbociclib; first compound 1 µM) | relative viability (Zosuquidar + Decitabine; first compound 0.1 µM) | relative viability (Zosuquidar + Alpelisib; first compound 0.1 µM) | relative viability (Zosuquidar + Palbociclib; first compound 0.1 µM)
LCLC-97TM1 | 0.288 | 0.27 | 0.252 | 0.217 | 0.282 | 0.27 | 0.217 | 0.253 | 0.224 | 0.187 | 0.237 | 0.224 | 0.234 | 0.227 | 0.274 | 0.193 | 0.215 | – | – | –
LU99A | 0.27 | 0.245 | 0.258 | 0.255 | 0.224 | 0.835 | 1.09 | 0.917 | 1.04 | 0.472 | 0.507 | 0.617 | 0.529 | 0.342 | 0.37 | 0.459 | 0.353 | 0.946 | 0.475 | 0.473
NCI-H1299 | – | – | – | – | – | – | – | – | – | 1.07 | 0.998 | 0.995 | 1.05 | – | – | – | – | – | 1.05 | –
NCI-H1355 | 0.583 | 0.66 | 0.502 | 0.503 | 0.356 | 0.388 | 0.393 | 0.382 | 0.401 | 0.851 | 0.801 | 0.971 | 0.87 | 0.417 | 0.397 | 0.308 | 0.412 | 0.355 | 0.596 | 0.404
HARA | 0.132 | 0.113 | 0.116 | 0.129 | 0.107 | 0.474 | 0.542 | 0.492 | 0.629 | 0.784 | 0.822 | 0.825 | 0.761 | 0.324 | 0.18 | 0.245 | 0.299 | 0.607 | 0.765 | 0.304
LXF-289 | 0.206 | 0.198 | 0.171 | 0.218 | 0.208 | 0.357 | 0.364 | 0.418 | 0.403 | 0.994 | 1.04 | 1.02 | 1.01 | 0.576 | 0.599 | 0.582 | 0.584 | 0.367 | 0.97 | 0.614
201T | 0.968 | 1.1 | 0.916 | 0.935 | 0.87 | 0.848 | 0.858 | 0.867 | 0.864 | 0.891 | 0.965 | 1.01 | 1.06 | 0.349 | 0.343 | 0.354 | 0.337 | 0.837 | 0.896 | 0.365
HCC-827 | 0.456 | 0.481 | – | 0.436 | 0.414 | 0.302 | 0.367 | 0.307 | 0.295 | 0.935 | 1.01 | 1.07 | 0.96 | 0.503 | 0.497 | 0.498 | 0.491 | 0.266 | 0.759 | 0.501
NCI-H1703 | – | – | – | – | – | – | – | – | – | 0.355 | 0.325 | 0.438 | 0.345 | – | – | – | – | – | 0.237 | –
NCI-H1975 | 0.761 | 0.78 | 0.699 | 0.435 | 0.295 | 0.4 | 0.402 | 0.411 | 0.547 | 0.624 | 0.653 | 0.675 | 0.713 | 0.587 | 0.475 | 0.714 | 0.531 | 0.423 | 0.679 | 0.582
NCI-H2023 | 0.401 | 0.437 | 0.301 | 0.232 | 0.15 | 0.195 | 0.281 | 0.246 | 0.268 | 0.601 | 0.636 | 0.548 | 0.613 | 0.364 | 0.36 | 0.37 | 0.313 | 0.235 | 0.6 | 0.418
ChaGo-K-1 | 0.263 | 0.203 | 0.234 | 0.23 | 0.201 | 0.552 | 0.448 | 0.536 | 0.477 | – | – | – | – | 0.885 | 0.994 | 0.917 | 0.947 | 0.534 | – | 1.02
COR-L 105 | 0.397 | 0.457 | – | 0.361 | 0.342 | 0.645 | 0.712 | 0.716 | 0.652 | 1.07 | 0.852 | 1.07 | 1.12 | 0.372 | 0.376 | 0.417 | 0.385 | 0.636 | 1.11 | 0.478
SK-MES-1 | 1.09 | 0.991 | 0.999 | 0.927 | 0.753 | 0.343 | 0.36 | 0.422 | 0.402 | 0.876 | 0.95 | 1.07 | 0.987 | 0.332 | 0.347 | 0.329 | 0.319 | 0.347 | 0.692 | 0.374
A549 | – | – | – | – | – | 0.264 | 0.116 | 0.318 | 0.301 | 0.688 | 0.745 | 1.03 | 0.877 | – | – | – | – | – | 0.678 | –

From the supplement of paper PMC10307832
